Test results reported in publication PMC8854719, “Phase 1A/1B dose-escalation and -expansion study to evaluate the safety, pharmacokinetics, food effects and antitumor activity of pamiparib in advanced solid tumours” (British Journal of Cancer, 2021).

Tested on: advanced solid tumours
Experiment: Tumour response and PFS per RECIST v1.1, overall efficacy-evaluable population
Type: in vivo, human
Protocol: Pamiparib in plasma was measured using a validated liquid chromatography-tandem–mass spectrometry assay with a lower limit of quantification of 1.0 ng/mL. The collection schedule for blood samples used to assess the PK profile is presented in the Supplemental Appendix. Summary PK parameters, including area under the concentration-time curve from time 0 to 9 h (AUC0-9) or infinity (AUC0-inf), maximal plasma concentration (Cmax) and time to maximal plasma concentration (Tmax), were estimated. The pharmacodynamic (PD) activity of pamiparib was explored through the evaluation of poly(ADP-ribose [PAR]) formation in peripheral blood mononuclear cells (PBMCs) after pamiparib administration. The schedule for blood sample collection (PK and PBMCs) and additional assessment information for PAR levels in PBMCs and pharmacodynamic activity is presented in the Supplemental Appendix. Antitumor activity was assessed by radiographic imaging (computed tomography or magnetic resonance imaging) during screening, within 28 days of first pamiparib dose, every 6 weeks in the first 12 months and every 9 weeks thereafter.
Tumour response was evaluated by RECIST v1.1. For patients with ovarian cancer, tumour response was assessed per RECIST v1.1 and by Gynecologic Cancer Intergroup (GCIG) CA-125 criteria. Tumour response for patients with prostate cancer was assessed by Prostate Cancer Clinical Trials Working Group 2 (PCWG2) criteria. Objective response rate (ORR) was defined as the proportion of patients achieving a confirmed complete response (CR) or partial response (PR) on study treatment. Blood tumour antigens (e.g., carcinoembryonic antigen for colorectal cancer, CA-125 for ovarian cancer and prostate-specific antigen [PSA] for mCRPC) were assessed during screening, every 6 weeks after the first pamiparib dose in the first 12 months, and every 9 weeks thereafter.
The safety population comprised all patients in the dose-escalation and dose-expansion phases who received at least one dose of pamiparib (Supplementary Table S2). Patients in the safety analysis set for whom valid pamiparib PK parameters were estimated and for whom evaluable PD results were available represented the PK population and the PD population, respectively. The efficacy-evaluable population included patients in the safety analysis set who had at least one evaluable postbaseline tumour assessment or those who discontinued due to clinical disease progression or early death before tumour assessment could be performed. The EOC efficacy-evaluable population was a subset of the overall efficacy-evaluable population that included patients with EOC from both the dose-escalation and dose-expansion phases. Patients in the dose-expansion phase without measurable disease at baseline per RECIST v1.1 were excluded from the efficacy-evaluable population.
Descriptive statistics were used to summarise all study data (see Supplemental Appendix). Progression-free survival (PFS) and event-free rates were estimated using the Kaplan–Meier method along with the corresponding 95% CI. Pharmacokinetic parameters were derived using standard non-compartmental methods with Phoenix WinNonlin Version 6.4 or higher (Pharsight Corp., Mountain View, California).

[1] = BID efficacy-evaluable population (n = 77)
[2] = Total BID dosage group, overall efficacy-evaluable (n = 77)
[3] = dose escalation, 2.5 mg BID (n=4)
[4] = dose escalation, 5.0 mg BID (n=3)
[5] = dose escalation, 10 mg BID (n=3)
[6] = dose escalation, 20 mg BID (n=3)
[7] = dose escalation, 40 mg BID (n=6)
[8] = dose escalation, 60 mg BID (n=11)
[9] = dose escalation, 80 mg BID (n=9)
[10] = dose escalation, 120 mg BID (n=5)
[11] = dose escalation, Total BID (N=44)
[12] = overall efficacy-evaluable population (n=95)

SMILES: C[C@]12CCCN1CC1=NNC(=O)c3cc(F)cc4[nH]c2c1c34 [pamiparib]
- Median duration of response (BID dosage group): 14.9 months
- Confirmed CRs [1]: 5.2%
- Confirmed PRs [1]: 22.1%
- Confirmed CRs (in words) (QD dosage group (n=18)): no confirmed CRs
- Confirmed ORR (QD dosage group (n=18)): 11.1%
- Confirmed PRs (QD dosage group (n=18)): 11.1%
- Event-free rate, 1 year (Total (N=95)): 32.7 (21.73-44.18) % (95% CI)
- Event-free rate, 2 years (Total (N=95)): 11.0 (4.13-21.80) % (95% CI)
- PFS censored: New anticancer therapy received before event (Total (N=95)): 1 (1.1) n (%)
- PFS censored: No disease progression or death (Total (N=95)): 27 (28.4) n (%)
- PFS censored: No postbaseline assessment (Total (N=95)): 5 (5.3) n (%)
- PFS censored: ≥2 consecutive missed assessments (Total (N=95)): 2 (2.1) n (%)
- PFS events: Death (Total (N=95)): 10 (10.5) n (%)
- PFS events: Disease progression (Total (N=95)): 50 (52.6) n (%)
- PFS: Censored (Total (N=95)): 35 (36.8) n (%)
- PFS: Events (Total (N=95)): 60 (63.2) n (%)
- Progression-Free Survival, Median (Total (N=95)): 5.5 (4.14-8.31) months (95% CI)
- Event-free rate, 1 year (Total BID Dosage Group (n=77)): 34.0 (21.72-46.58) % (95% CI)
- Event-free rate, 2 years (Total BID Dosage Group (n=77)): 12.2 (4.52-24.01) % (95% CI)
- PFS censored: New anticancer therapy received before event (Total BID Dosage Group (n=77)): 1 (1.3) n (%)
- PFS censored: No disease progression or death (Total BID Dosage Group (n=77)): 20 (26.0) n (%)
- PFS censored: No postbaseline assessment (Total BID Dosage Group (n=77)): 5 (6.5) n (%)
- PFS censored: ≥2 consecutive missed assessments (Total BID Dosage Group (n=77)): 2 (2.6) n (%)
- PFS events: Death (Total BID Dosage Group (n=77)): 7 (9.1) n (%)
- PFS events: Disease progression (Total BID Dosage Group (n=77)): 42 (54.5) n (%)
- PFS: Censored (Total BID Dosage Group (n=77)): 28 (36.4) n (%)
- PFS: Events (Total BID Dosage Group (n=77)): 49 (63.6) n (%)
- Progression-Free Survival, Median (Total BID Dosage Group (n=77)): 6.9 (4.14-9.89) months (95% CI)
- Best overall response: Complete response [2]: 4 (5.2) n (%)
- Best overall response: Not assessed [2]: 7 (9.1) n (%)
- Best overall response: Not evaluable [2]: 1 (1.3) n (%)
- Best overall response: Partial response [2]: 17 (22.1) n (%)
- Best overall response: Progressive disease [2]: 11 (14.3) n (%)
- Best overall response: Stable disease [2]: 37 (48.1) n (%)
- Clinical benefit rate [2]: 39.0 (28.1–50.8) % (95% CI)
- Disease control rate [2]: 75.3 (64.2–84.4) % (95% CI)
- Objective response rate [2]: 27.3 (17.7–38.6) % (95% CI)
- Event-free rate, 1 year (Total QD Dosage Group (n=18)): 30.1 (8.73-55.34) % (95% CI)
- Event-free rate, 2 years (Total QD Dosage Group (n=18)): 0.0 (NE-NE) % (95% CI)
- PFS censored: New anticancer therapy received before event (Total QD Dosage Group (n=18)): 0 (0) n (%)
- PFS censored: No disease progression or death (Total QD Dosage Group (n=18)): 7 (38.9) n (%)
- PFS censored: No postbaseline assessment (Total QD Dosage Group (n=18)): 0 (0) n (%)
- PFS censored: ≥2 consecutive missed assessments (Total QD Dosage Group (n=18)): 0 (0) n (%)
- PFS events: Death (Total QD Dosage Group (n=18)): 3 (16.7) n (%)
- PFS events: Disease progression (Total QD Dosage Group (n=18)): 8 (44.4) n (%)
- PFS: Censored (Total QD Dosage Group (n=18)): 7 (38.9) n (%)
- PFS: Events (Total QD Dosage Group (n=18)): 11 (61.1) n (%)
- Progression-Free Survival, Median (Total QD Dosage Group (n=18)): 4.9 (3.22-12.32) months (95% CI)
- Best overall response: Complete response [3]: 0 (0.0) n (%)
- Best overall response: Not assessed [3]: 2 (50.0) n (%)
- Best overall response: Not evaluable [3]: 0 (0.0) n (%)
- Best overall response: Partial response [3]: 1 (25.0) n (%)
- Best overall response: Progressive disease [3]: 1 (25.0) n (%)
- Best overall response: Stable disease [3]: 0 (0.0) n (%)
- Clinical benefit rate [3]: 25.0 (0.63-80.59) % (95% CI)
- Disease control rate [3]: 25.0 (0.63-80.59) % (95% CI)
- Objective response rate [3]: 25.0 (0.63-80.59) % (95% CI)
- Best overall response: Complete response [4]: 0 (0.0) n (%)
- Best overall response: Not assessed [4]: 1 (33.3) n (%)
- Best overall response: Not evaluable [4]: 0 (0.0) n (%)
- Best overall response: Partial response [4]: 1 (33.3) n (%)
- Best overall response: Progressive disease [4]: 0 (0.0) n (%)
- Best overall response: Stable disease [4]: 1 (33.3) n (%)
- Clinical benefit rate [4]: 33.3 (0.84-90.57) % (95% CI)
- Objective response rate [4]: 33.3 (0.84-90.57) % (95% CI)
- Best overall response: Complete response [5]: 0 (0.0) n (%)
- Best overall response: Not assessed [5]: 0 (0.0) n (%)
- Best overall response: Not evaluable [5]: 0 (0.0) n (%)
- Best overall response: Partial response [5]: 0 (0.0) n (%)
- Best overall response: Progressive disease [5]: 1 (33.3) n (%)
- Best overall response: Stable disease [5]: 2 (66.7) n (%)
- Clinical benefit rate [5]: 0.0 (0.00-70.76) % (95% CI)
- Disease control rate [5]: 66.7 (9.43-99.16) % (95% CI)
- Objective response rate [5]: 0.0 (0.00-70.76) % (95% CI)
- Best overall response: Complete response [6]: 1 (33.3) n (%)
- Best overall response: Not assessed [6]: 0 (0.0) n (%)
- Best overall response: Not evaluable [6]: 0 (0.0) n (%)
- Best overall response: Partial response [6]: 1 (33.3) n (%)
- Best overall response: Progressive disease [6]: 1 (33.3) n (%)
- Best overall response: Stable disease [6]: 0 (0.0) n (%)
- Clinical benefit rate [6]: 66.7 (9.43-99.16) % (95% CI)
- Disease control rate [6]: 66.7 (9.43-99.16) % (95% CI)
- Objective response rate [6]: 66.7 (9.43-99.16) % (95% CI)
- Best overall response: Complete response [7]: 0 (0.0) n (%)
- Best overall response: Not assessed [7]: 0 (0.0) n (%)
- Best overall response: Not evaluable [7]: 0 (0.0) n (%)
- Best overall response: Partial response [7]: 2 (33.3) n (%)
- Best overall response: Progressive disease [7]: 0 (0.0) n (%)
- Best overall response: Stable disease [7]: 4 (66.7) n (%)
- Clinical benefit rate [7]: 33.3 (4.33-77.72) % (95% CI)
- Disease control rate [7]: 100.0 (54.07-100.00) % (95% CI)
- Objective response rate [7]: 33.3 (4.33-77.72) % (95% CI)
- Best overall response: Complete response [8]: 1 (9.1) n (%)
- Best overall response: Not assessed [8]: 2 (18.2) n (%)
- Best overall response: Not evaluable [8]: 0 (0.0) n (%)
- Best overall response: Partial response [8]: 0 (0.0) n (%)
- Best overall response: Progressive disease [8]: 3 (27.3) n (%)
- Best overall response: Stable disease [8]: 5 (45.5) n (%)
- Clinical benefit rate [8]: 18.2 (2.28-51.78) % (95% CI)
- Disease control rate [8]: 54.5 (23.38-83.25) % (95% CI)
- Objective response rate [8]: 9.1 (0.23-41.28) % (95% CI)
- Best overall response: Complete response [9]: 1 (11.1) n (%)
- Best overall response: Not assessed [9]: 1 (11.1) n (%)
- Best overall response: Not evaluable [9]: 0 (0.0) n (%)
- Best overall response: Partial response [9]: 1 (11.1) n (%)
- Best overall response: Progressive disease [9]: 1 (11.1) n (%)
- Best overall response: Stable disease [9]: 5 (55.6) n (%)
- Clinical benefit rate [9]: 44.4 (13.70-78.80) % (95% CI)
- Disease control rate [9]: 77.8 (39.99-97.19) % (95% CI)
- Objective response rate [9]: 22.2 (2.81-60.01) % (95% CI)
- Best overall response: Complete response [10]: 0 (0.0) n (%)
- Best overall response: Not assessed [10]: 1 (20.0) n (%)
- Best overall response: Not evaluable [10]: 1 (20.0) n (%)
- Best overall response: Partial response [10]: 1 (20.0) n (%)
- Best overall response: Progressive disease [10]: 1 (20.0) n (%)
- Best overall response: Stable disease [10]: 1 (20.0) n (%)
- Clinical benefit rate [10]: 20.0 (0.51-71.64) % (95% CI)
- Disease control rate [10]: 40.0 (5.27-85.34) % (95% CI)
- Objective response rate [10]: 20.0 (0.51-71.64) % (95% CI)
- Best overall response: Complete response [11]: 3 (6.8) n (%)
- Best overall response: Not assessed [11]: 7 (15.9) n (%)
- Best overall response: Not evaluable [11]: 1 (2.3) n (%)
- Best overall response: Partial response [11]: 7 (15.9) n (%)
- Best overall response: Progressive disease [11]: 8 (18.2) n (%)
- Best overall response: Stable disease [11]: 18 (40.9) n (%)
- Clinical benefit rate [11]: 29.5 (16.76-45.20) % (95% CI)
- Disease control rate [11]: 63.6 (47.77-77.59) % (95% CI)
- Objective response rate [11]: 22.7 (11.47-37.84) % (95% CI)
- Patients who died (efficacy-evaluable patients (N 95), n = 10): 10.5%
- Patients who progressed (efficacy-evaluable patients (N 95), n = 50): 52.6%
- Patients who died or progressed (efficacy-evaluable patients, 60/95): 63.2%
- Confirmed complete responses [12]: 4.2%
- Confirmed partial responses [12]: 20%
- Confirmed ORR (overall efficacy-evaluable population (n=95), BID and QD): 24.2%
